From patent US7211685B2, “Calcium receptor antagonists” (Japan Tobacco Inc., priority 2000, dated 2007)
Structures can show the parent of a compound that is named as a salt.

Experiments:
PTH secretion [1] = assay: PTH secretion promoting action, oral administration to male SD rats, serum PTH by rat PTH (1-84) ELISA; assay type: in vivo; settings: for serum PTH concentration, 30 min later / serum PTH concentration, 120 min later / serum PTH concentration, 240 min later: male SD rats, oral, mean ± S.E.
Experimental: (§1) PTH Secretion Promoting Action
(§2) The test compound was orally administered to 6 to 9-week-old male SD rats (Charles River Japan, Inc.) fasted for 20 hr, using a solvent (5% ethanol, 0.5% aqueous methyl cellulose solution) at a dose of 30 mg/5 ml/kg and 100 mg/5 ml/kg. A solvent alone was orally administered to the control group at a dose of 5 ml/kg. The blood was drawn from the tail vein immediately before and 0.5, 1, 2, 4, 6 hr after the administration of the test compound, and sera were obtained. The serum PTH concentration was measured using rat PTH (1-84) ELISA kit (Nohon Medi-Physics). The results of the serum PTH concentration before and 30 min and 4 hr after the administration of the test compound are shown in Table 24, and the results of the serum PTH concentration before and 30 min and 2 hr after the administration of the test compound of the 30 mg/5 ml/kg administration group are shown in Table 25.
In FIG. 1, FIG. 2 and FIG. 3, the time-course changes of the serum PTH concentration at the dose (30 mg/kg) of Example 22, Example 23 and Example 24 are shown.

human calcium receptor = target: T1, human calcium receptor (Homo sapiens, UniProt P41180); assay: Evaluation of antagonistic action on calcium receptor using reporter gene (luciferase); assay type: cell-based
T1 construct: expressed in transfected cells; host or cells: cell strain derived from rat adrenal
T1 sequence (P41180 20-1078): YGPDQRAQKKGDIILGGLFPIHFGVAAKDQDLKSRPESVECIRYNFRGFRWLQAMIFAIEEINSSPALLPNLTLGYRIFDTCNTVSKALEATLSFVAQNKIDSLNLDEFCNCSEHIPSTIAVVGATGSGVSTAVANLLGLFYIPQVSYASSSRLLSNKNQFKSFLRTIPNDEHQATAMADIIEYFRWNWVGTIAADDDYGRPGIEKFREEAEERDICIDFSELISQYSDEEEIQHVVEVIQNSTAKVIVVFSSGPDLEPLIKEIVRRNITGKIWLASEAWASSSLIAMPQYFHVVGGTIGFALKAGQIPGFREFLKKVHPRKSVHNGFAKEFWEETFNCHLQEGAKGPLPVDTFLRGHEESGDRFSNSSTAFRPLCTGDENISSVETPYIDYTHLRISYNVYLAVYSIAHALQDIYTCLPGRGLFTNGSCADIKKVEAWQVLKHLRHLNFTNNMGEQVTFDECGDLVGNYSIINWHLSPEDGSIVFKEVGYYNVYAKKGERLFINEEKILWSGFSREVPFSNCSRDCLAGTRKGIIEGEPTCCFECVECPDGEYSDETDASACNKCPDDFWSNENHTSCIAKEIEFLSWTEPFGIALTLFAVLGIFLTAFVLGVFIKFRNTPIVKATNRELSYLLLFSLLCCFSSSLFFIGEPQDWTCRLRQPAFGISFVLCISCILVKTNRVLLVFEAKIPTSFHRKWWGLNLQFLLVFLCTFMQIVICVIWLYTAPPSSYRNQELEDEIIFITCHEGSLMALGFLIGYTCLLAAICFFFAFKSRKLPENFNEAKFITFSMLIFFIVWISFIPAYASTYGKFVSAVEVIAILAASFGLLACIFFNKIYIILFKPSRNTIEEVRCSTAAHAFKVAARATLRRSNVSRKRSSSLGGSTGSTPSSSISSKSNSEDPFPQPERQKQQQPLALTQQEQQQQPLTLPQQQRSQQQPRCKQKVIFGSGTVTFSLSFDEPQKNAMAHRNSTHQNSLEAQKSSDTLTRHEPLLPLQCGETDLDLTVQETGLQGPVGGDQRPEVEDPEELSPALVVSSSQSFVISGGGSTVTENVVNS
Experimental: Evaluation of Antagonistic Action on Calcium Receptor Using Reporter Gene
Luciferase cDNA and human calcium receptor cDNA were transfected into a cell strain derived from rat adrenal and the transformed cells were cultured overnight in a medium (F12 medium containing 0.5% dialyzed horse serum and 0.25% dialyzed bovine fetal serum). The next day, a dimethyl sulfoxide solution containing a test compound at 0.01–100 mM was diluted 100-fold with the medium and added to the test compound group at 10 μl per well. A medium containing 50 mM calcium chloride was added to the control group at 10 μl per well, such that the final calcium concentration of the medium became 5 mM. A medium alone was added to the blank group. After culture for 4 hr, luciferase substrate (PicaGene LT-2.0, TOYO INK) was added and the luciferase activity was measured with a photoluminometer. The inhibitory rate (%) was calculated from the obtained measured values according to the following formula.
Based on the results, the concentration (IC50) showing 50% inhibitory rate was determined.

PTH secretion [2] = assay: PTH secretion promoting action, oral administration to female Fisher rats, serum PTH by rat PTH (1-84) ELISA; assay type: in vivo; settings: 30 mg/5 ml/kg, mean ± S.E.
Experimental: as §1
as §2, with “4” for “6”, “6-week-old female Fisher” for “9-week-old male SD”, “30” for “30 mg/5 ml/kg and 100”, “4” for “4, 6”, “26.” for “24, and the results of the serum PTH concentration before and 30 min and 2 hr after the administration of the test compound of the 30 mg/5 ml/kg administration group are shown in Table 25.”

[3] = OVX rat; cited from earlier work
[4] = system: osteoblast and osteoclast; settings: cited from earlier work
PTH release = settings: OVX rat, cited from earlier work
[5] = Table 25, 30 mg/5 ml/kg administration group
[6] = 100 mg/kg administration group (lower line)

Cc1ccsc1C(OC[C@H](O)CNC(C)(C)Cc1ccc2ccccc2c1)C1CC1 (stereo partly drawn) [Example 100]
serum PTH concentration, 30 min later (PTH secretion [1]; [5]): 130.1 ± 53.7 pg/mL | serum PTH concentration, 120 min later (PTH secretion [1]; [5]): 49.3 ± 4.4 pg/mL | IC50 (human calcium receptor; Table 25, final calcium 5 mM): 67 nM

Cc1ccccc1[C@H](OC[C@H](O)CNC(C)(C)Cc1ccc2ccccc2c1)C1CC1.O=C(O)/C=C/C(=O)O [Example 62]
IC50 (human calcium receptor; Table 24, final calcium 5 mM): 45 nM | serum PTH concentration, 30 min later (PTH secretion [2]): 620.6 ± 34.2 pg/mL | serum PTH concentration, 240 min later (PTH secretion [2]): 100.1 ± 11.7 pg/mL | serum PTH concentration, before administration (PTH secretion [2]): 82.9 ± 14.5 pg/mL

CC(C)(Cc1ccc2ccccc2c1)NC[C@@H](O)COc1cccc(Cl)c1C#N [NPS-2143]
PTH secretion promoting action, time course (FIG. 5) (PTH secretion [1]; 30 mg/kg, rat): sustained secretion promoting action | concentration in blood of NPS-2143 after 24 hr [3]: not more than 10 ng/ml | concentration in blood of NPS-2143 at 8 hr after administration [3]: above 100 ng/ml | direct effect on osteoblast and osteoclast in vitro [4]: no direct effect | PTH concentration in blood after 4 hr (PTH release; NPS-2143 100 μmol/kg): about 140 pg/ml | PTH concentration in blood at 30 min (PTH release; NPS-2143 100 μmol/kg): about 115 pg/ml | effect on bone (PTH release; oral administration): no bone increase or decrease was found

CC(C)(Cc1ccc2ccccc2c1)NC[C@@H](O)COCc1ccccc1 [Comparative Example 1, reference compound]
serum PTH concentration, 30 min later (PTH secretion [1]; [6]): 139.0 ± 18.8 pg/mL | serum PTH concentration, 240 min later (PTH secretion [1]; [6]): 78.9 ± 12.3 pg/mL | blood PTH concentration at 30 min relative to that before administration (PTH secretion [1]; 100 mg/kg, 30 min after administration): 1.3 times | IC50 (human calcium receptor; Table 24, final calcium 5 mM): 560 nM

COc1ccccc1[C@H](OC[C@H](O)CNC(C)(C)Cc1ccc2ccccc2c1)C1CC1 [Example 24, (2R)-1-[1,1-Dimethyl-2-(naphthalen-2-yl)ethylamino]-3-[(1R)-(cyclopropyl)(2-methoxyphenyl)methoxy]propan-2-ol]
IC50 (human calcium receptor; Table 24, final calcium 5 mM): 22 nM

CC(C)(Cc1ccc2ccccc2c1)NC[C@@H](O)COC(c1cccc(C(N)=O)c1)C1CC1 (stereo partly drawn) [Example 80]
serum PTH concentration, 30 min later (PTH secretion [1]; [5]): 156.6 ± 15.3 pg/mL | serum PTH concentration, 120 min later (PTH secretion [1]; [5]): 76.1 ± 12.6 pg/mL | IC50 (human calcium receptor; Table 25, final calcium 5 mM): 64 nM

CC(C)(Cc1ccc2ccccc2c1)NC[C@@H](O)CO[C@@H](c1ccccc1CO)C1CC1 [Example 58, (2R)-1-[1,1-Dimethyl-2-(naphthalen-2-yl)ethylamino]-3-[(1R)-(cyclopropyl)[2-(hydroxymethyl)phenyl]methoxy]propan-2-ol Hemifumarate]
serum PTH concentration, 30 min later (PTH secretion [2]): 644.4 ± 65.2 pg/mL | serum PTH concentration, 240 min later (PTH secretion [2]): 394.1 ± 100.9 pg/mL | serum PTH concentration, before administration (PTH secretion [2]): 179.2 ± 45.6 pg/mL

COc1ccccc1[C@@H](C)OC[C@H](O)CNC(C)(C)Cc1ccc2ccccc2c1 [Example 22, (2R)-1-[1,1-Dimethyl-2-(naphthalen-2-yl)ethylamino]-3-[(1R)-1-(2-methoxyphenyl)ethoxy]propan-2-ol hydrochloride]
IC50 (human calcium receptor; Table 24, final calcium 5 mM): 59 nM

CC(C)(Cc1ccc2ccccc2c1)NC[C@@H](O)COC(c1cccc(C#N)c1)C1CC1 (stereo partly drawn) [Example 105]
serum PTH concentration, 30 min later (PTH secretion [1]; [5]): 115.4 ± 20.0 pg/mL | serum PTH concentration, 120 min later (PTH secretion [1]; [5]): 74.3 ± 12.1 pg/mL | IC50 (human calcium receptor; Table 25, final calcium 5 mM): 49 nM

COc1ccc(CC(C)(C)NC[C@@H](O)CO[C@@H](c2ccccc2C)C2CC2)cc1C [Example 95]
serum PTH concentration, 30 min later (PTH secretion [1]; [5]): 199.1 ± 25.8 pg/mL | serum PTH concentration, 120 min later (PTH secretion [1]; [5]): 80.4 ± 9.6 pg/mL | IC50 (human calcium receptor; Table 25, final calcium 5 mM): 29 nM

Cc1ccccc1C(OC[C@H](O)CNC(C)(C)Cc1ccc2ccccc2c1)C1CC1 (stereo partly drawn) [Example 2, (2R)-1-[1,1-Dimethyl-2-(naphthalen-2-yl)ethylamino]-3-[(cyclopropyl) (2-methylphenyl)methoxy]propan-2-ol]
serum PTH concentration, 30 min later (PTH secretion [1]; [6]): 154.8 ± 17.1 pg/mL | serum PTH concentration, 240 min later (PTH secretion [1]; [6]): 85.8 ± 17.3 pg/mL | IC50 (human calcium receptor; Table 24, final calcium 5 mM): 27 nM

CC(C)(Cc1ccc2ccccc2c1)NC[C@@H](O)CO[C@H](c1ccccc1CO)C1CC1 [Example 59, (2R)-1-[1,1-Dimethyl-2-(naphthalen-2-yl)ethylamino]-3-[(1S)-(cyclopropyl)[2-(hydroxymethyl)phenyl]methoxy]propan-2-ol Hemifumarate]
serum PTH concentration, 30 min later (PTH secretion [2]): 313.4 ± 103.3 pg/mL | serum PTH concentration, 240 min later (PTH secretion [2]): 62.2 ± 10.3 pg/mL | serum PTH concentration, before administration (PTH secretion [2]): 189.8 ± 90.9 pg/mL

COc1ccc(CC(C)(C)NC[C@@H](O)CO[C@@H](c2ccccc2C)C2CC2)cc1C [Example 127]
serum PTH concentration, 30 min later (PTH secretion [1]; [5]): 265.3 ± 22.3 pg/mL | serum PTH concentration, 120 min later (PTH secretion [1]; [5]): 75.2 ± 7.3 pg/mL | IC50 (human calcium receptor; Table 25, final calcium 5 mM): 133 nM

COc1ccccc1C(OC[C@H](O)CNC(C)(C)Cc1ccc2ccccc2c1)C1CC1 (stereo partly drawn) [Example 1, (2R)-1-[1,1-Dimethyl-2-(naphthalen-2-yl)ethylamino]-3-[(cyclopropyl)(2-methoxyphenyl)methoxy]propan-2-ol]
serum PTH concentration, 30 min later (PTH secretion [1]; [6]): 160.0 ± 13.8 pg/mL | serum PTH concentration, 240 min later (PTH secretion [1]; [6]): 58.3 ± 7.3 pg/mL | IC50 (human calcium receptor; Table 24, final calcium 5 mM): 41 nM

COc1ccccc1C(C)OC[C@H](O)CNC(C)(C)Cc1ccc2ccccc2c1 (stereo partly drawn) [Example 5, (2R)-1-[1,1-Dimethyl-2-(naphthalen-2-yl)ethylamino]-3-[1-(2-methoxyphenyl)ethoxy]propan-2-ol hydrochloride]
IC50 (human calcium receptor; Table 24, final calcium 5 mM): 70 nM

CN(C)c1ccccc1C(OC[C@H](O)CNC(C)(C)Cc1ccc2ccccc2c1)C1CC1 (stereo partly drawn) [Example 82]
serum PTH concentration, 30 min later (PTH secretion [1]; [5]): 121.9 ± 9.0 pg/mL | serum PTH concentration, 120 min later (PTH secretion [1]; [5]): 68.5 ± 11.4 pg/mL | IC50 (human calcium receptor; Table 25, final calcium 5 mM): 51 nM

Cc1ccc(CC(C)(C)NC[C@@H](O)CO[C@@H](c2ccccc2C)C2CC2)cc1C [Example 111]
serum PTH concentration, 30 min later (PTH secretion [1]; [5]): 236.3 ± 60.8 pg/mL | serum PTH concentration, 120 min later (PTH secretion [1]; [5]): 65.3 ± 6.4 pg/mL | IC50 (human calcium receptor; Table 25, final calcium 5 mM): 24 nM

rat PTH (1-34): rat parathyroid hormone fragment (1-34) administered to OVX rat (AVSEIQLMHNLGKHLASVERMQWLRKKLQDVHNF; Parathyroid hormone; UniProt P04089 32-65, looked up, fragment)
PTH concentration in blood, peak in 30 min (PTH release; rat PTH (1-34) 5 μg/kg): about 175 pg/ml | time to restore original PTH level in blood (PTH release; rat PTH (1-34) 5 μg/kg): 2 h

Cc1ccccc1[C@H](OC[C@H](O)CNC(C)(C)Cc1ccc2ccccc2c1)C1CC1 [Example 23, (2R)-1-[1,1-Dimethyl-2-(naphthalen-2-yl)ethylamino]-3-[(1R)-(cyclopropyl)(2-methylphenyl)methoxy]propan-2-ol]
IC50 (human calcium receptor; Table 24, final calcium 5 mM): 27 nM
